# Experiments:
# A-549 cells = assay: ROS activation via dihydroethidium staining, flow cytometry; type: cell-based
# Description: Since reactive oxygen species appeared to be involved in the nicking activity of the complexes (Supplementary Figure S24), we investigated whether there was an increase in ROS formation in cells upon drug treatment. Dihydroethidium (DHE) is a reduced form of ethidium, after oxidation with superoxide (ROS), it is converted into 2-hydroxy ethidium, which is a chemical that emits red fluorescence and intercalates DNA. […] Similar results were obtained using A-549 cells, but with much milder induction of ROS except for 8, which remained high (Supplementary Figure S26).
# 5 × 10^4 number of A-375 and A-549 cells were seeded on 12-well plates, and the next day cells were treated with either copper complexes (calculated IC70 values) or cisplatin (15 μM). Following 48 h of treatment, cells were trypsinized, centrifuged and resuspended in PBS solution supplemented with 1% fetal bovine serum (FBS) (10^6 cells/mL).
# Oxidative stress levels were assessed by Muse Oxidative Stress Kit (Luminex, MCH100111) using the same protocol as previously described (21).
# [1] = Thermodynamic solubility at pH 7.4; type: physicochemical; conditions: Cu(II) complexes; pH 7.40; 20 mM HEPES; 25.0°C
# Procedure: Thermodynamic solubility (S) was measured for the new ligands, L^7 and L^8, since data for the rest of the series was previously reported (9), and for selected Cu(II) complexes: 1, 5 and 6. Solubility was measured for the saturated solutions in water at pH 7.40 in 20 mM HEPES at 25.0 ± 0.1 °C. The concentration was determined by UV-Vis spectrophotometry using the stock solutions of the compounds with known concentrations dissolved in 100% DMSO, 50% and 25% (v/v) DMSO/buffered aqueous solutions for the calibration.
# plasmid DNA (H2B-GFP) = assay: Agarose gel electrophoresis of plasmid DNA (DNA migration assay); type: biochemical; conditions: 200 and 400 μM; overnight; room temperature
# Procedure: The nature of the interaction between the complexes and pure plasmid DNA was evaluated by agarose gel electrophoresis as described previously with minor modifications (21). Briefly, free ligands, copper complexes, and cisplatin (200 and 400 μM; in 20 μL total volume) were incubated overnight at room temperature with plasmid DNA (200 ng, H2B-GFP, Addgene #11680). NaN3 (final: 37.5 mM in ddH2O) was used as a ROS scavenger. Samples were run on a 1% agarose gel (100 V, 60 min). The experiments were carried out with two biological replicates, and ImageJ software was used to quantify and analyse the intensity of the bands.
# In addition to thermal denaturation, we performed a cell-free DNA binding assays followed by gel electrophoresis to further investigate the nature of the interaction between the complexes and DNA. The assay relies on the fact that the relative amount of the supercoiled form of plasmid DNA will change upon the occurrence of nicks since the relaxed form migrates slower and can be easily detected on the gel. […] The ligands had little to no effect on DNA migration except L^7 (Fig. S24A). However, incubation of plasmid DNA with complexes 1 - 8 confirmed binding to DNA and changed the supercoiling status by increasing the nicked circular form (Fig. S24). […] To understand whether the induction of DNA nicks requires ROS, the samples were pre-incubated with a ROS scavenger, NaN3. […]
compound,measurement,setting,value
"COc1ccc(C([O-])=NN=Cc2ccc3cccc([O-])c3n2)cc1.[Cu+2] [Complex 5, [Cu(L^5)]3]","ROS induction, in words",A-549 cells,milder ROS induction
"[Cu+2].[O-]C(=NN=Cc1ccc2cccc([O-])c2n1)c1ccc(F)cc1 [Complex 3, [Cu(L^3)]3]",thermodynamic solubility S 7.4,[1],< 1 µM
"CC(=O)[O-].O=C(NN=Cc1ccc2cccc([O-])c2n1)c1ccccc1.[Cu+2] [Complex 1, [Cu(HL^1)(AcO)]]",effect on plasmid DNA migration / nicking,plasmid DNA (H2B-GFP),highest nicking efficiency

# — PMC10072326, “Promising anticancer agents based on 8-hydroxyquinoline hydrazone copper(II) complexes” (Frontiers in Chemistry, 2023)
